The source of these data is patent US8993543B2, “Diphenyl sulfide derivative and pharmaceutical product which contains same as active ingredient” (Kyorin Pharmaceutical Co., Ltd., priority 2010, dated 2015).

Assay [1] concerns the target T1, Human S1P3 receptor (Homo sapiens, UniProt Q99500).
T1 construct: expressed in transfected cells; host or cells: CHO cells (Geneticin selection)
The assay can be described thus: Suppression of S1P-induced cellular calcium mobilization in human S1P3 receptor-expression CHO cells (Schild plot, Kd). Type of assay: cell-based. The settings on record: Fluo3 calcium mobilization by S1P, Schild plot analysis, read-out: S1P3 dissociation constant Kd. The method, then:
Suppression Effect of Test Compound Against Cellular Calcium Mobilization of Human S1P3 Receptor-Expression Cell by S1P (Sphingosine 1-Phosphoric Acid)
Human S1P3 receptor-expression CHO cells were subcultured in a Ham's F-12 culture medium containing 10% fetal bovine serum, and 300 μg/mL of Geneticin The human S1P3 receptor-expression CHO cells were subjected to 0.25% trypsinization, then recovered from the dish, and floated in a Ham's F-12 culture medium containing 10% fetal bovine serum, and 300 μg/mL of Geneticin. Then, the human S1P3 receptor-expression CHO cells were seeded into a 96-well black clear bottom plate (BD Falcon Biocoat) at 2.5×10^4/100 μL/well. The human S1P3 receptor-expression CHO cells were then cultivated for […] at 37° C. under 5% CO2 environment. The next day, the wells were washed with a Ham's F-12 culture medium containing 100 μL of 0.1% fatty acid-free bovine serum albumin (BSA). This washing treatment was carried out 3 times. The culture medium was exchanged with a Ham's F-12 culture medium containing 0.1% BSA, and then starved of serum for 6 hours in a CO2 incubator set at 37° C.
The culture medium was thrown away after the 6 hours. Then, 50 μL/well of a Fluo3 loading buffer was added, and the cultures were cultivated for further 1 hour. The Fluo3 loading buffer was prepared as follows. First, equal amounts of Fluo3-AM (Dojindo) and pluronic F-127 (20% DMSO solution, invitrogen) weremixed. Then, the mixture of Fluo3-AM andpluronic F-127 was added into a Hanks-HEPES buffer (Hanks balanced salt solution containing 20 mM HEPES (pH 7.4), 0.1% BSA (fatty acid-free), and 2.5 mM probenecid) to form a Fluo3 loading buffer having a final Fluo3-AM concentration of 4 μM.
After incubating for 1 hour, the wells were washed 3 times with 100 μL of the Hanks-HEPES buffer. 100 μL of the same buffer in which a test compound (0.125 nM, 1.25 nM, 12.5 nM, 125 nM, 1.25 μM) or DMSO had been dissolved were added to the each well, and then incubated for 30 minutes at 37° C. in a microplate spectrophotofluorometer (FLEX Station (Molecular Device Co., Ltd.)). Then, 25 μL of S1P prepared at 5 times the concentration of the final concentration based on serial dilution (final concentration of 0.1 nM, 1 nM, 10 nM, 100 nM, and 1 μM) was added, and the fluorescence based on the Fluo3 due to calcium mobilization was detected and measured at an excitation wavelength of 485 nm and a detection wavelength of 525 nm using an same apparatus. Based on the measurement data, the increase in fluorescence was calculated by subtracting the minimum fluorescence intensity from the maximum fluorescence intensity. The calculated increase in fluorescence was used to perform a curve approximation of the relationship between the S1P concentration and the increase in fluorescence using PRISM 4 software (GraphPad). Based on the results, the EC50 value of the compound-untreated and the EC50 value of the compound-treated at each concentration was calculated. Based on these values, Schild plot analysis was carried out in order to determine the dissociation constant Kd. In Table 1, 1 nmol/L>Kd value≧0.1 nmol/L is indicated as “+”, 0.1 nmol/L>Kd value≧0.01 nmol/L is indicated as “++”, and 0.01 nmol/L>Kd value is indicated as “+++”.
On the technique in general: A change in cytosolic calcium serves as a functional read-out for many receptors and channels.

In assay [2] the target is T2, S1P1 receptor (Homo sapiens, UniProt P21453). Briefly: Antagonistic action on the S1P1 receptor by the method of Experiment Example 1 (Kd). Type of assay: cell-based. Further details: expressed in transfected cells.
T2 sequence (P21453 whole entry): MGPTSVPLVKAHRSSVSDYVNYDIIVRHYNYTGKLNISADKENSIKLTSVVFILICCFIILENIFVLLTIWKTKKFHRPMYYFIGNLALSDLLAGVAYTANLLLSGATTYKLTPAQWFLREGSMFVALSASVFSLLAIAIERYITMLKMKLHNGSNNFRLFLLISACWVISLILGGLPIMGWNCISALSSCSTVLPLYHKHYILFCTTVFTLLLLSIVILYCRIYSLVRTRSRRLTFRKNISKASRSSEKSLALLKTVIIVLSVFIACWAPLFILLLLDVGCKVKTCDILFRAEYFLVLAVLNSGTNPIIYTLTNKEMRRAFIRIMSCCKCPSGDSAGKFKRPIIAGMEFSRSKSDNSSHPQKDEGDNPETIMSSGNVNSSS
Assay [3] deals with T2, S1P1 receptor. Briefly: Intracellular calcium mobilization derivative test (agonist action) in human S1P1 receptor-expression CHO cells. The class given is cell-based. Details: expressed in transfected cells; host or cells: CHO cells (Geneticin selection). The settings on record: agonist mode, up to 10 μM. The method, then: Intracellular Calcium Mobilization Derivative Test of Test Compound Against Human S1P1 Receptor-Expression Cell
Human S1P1 receptor-expression CHO cells were subcultured in a Ham's F-12 culture medium containing 10% fetal bovine serum, and 300 μg/mL of Geneticin. The human S1P1 receptor-expression CHO cells were subjected to 0.25% trypsinization, then recovered from the dish, and floated in a Ham's F-12 culture medium containing 10% fetal bovine serum, and 300 μg/mL of Geneticin. Then, the human S1P1 receptor-expression CHO cells were seeded into a 96-well black clear bottom plate (BD Falcon Biocoat) at 2.5×10^4/100 μL/well. […]
After incubating for 1 hour, the wells were washed 3 times with 100 μL of the Hanks-HEPES buffer. […] Then, 25 μL of the same buffer dissolved with DMSO, or S1P prepared at 5 times the concentration of the final concentration based on serial dilution or the test compound (final concentration of 0.1 nM, 1 nM, 10 nM, 100 nM, 1 μM, and 10 μM) was added, and the fluorescence based on the Fluo3 due to calcium mobilization was detected and measured at an excitation wavelength of 485 nm and a detection wavelength of 525 nm using the same apparatus. Based on the measurement data, the increase in fluorescence was calculated by subtracting the minimum fluorescence intensity from the maximum fluorescence intensity. […]

Assay [4] relates to Cecal ligation and puncture (CLP) sepsis. The assay can be described thus: Cecal ligation and puncture sepsis model, survival. Type of assay: in vivo, Wistar rats. Particulars: CLP rats. As for the experimental part: Cecal Ligation and Puncture Sepsis Model
This model is widely used as a model for polymicrobial abdominal sepsis caused by leakage of intestinal bacteria. The experiment was carried out with reference to the method described in Non-Patent Literature 9 (D. Rittirsch et al., Nature Protocols, 4, 31 (2009)).
Preparation of Cecalligation and Puncture (CLP) Sepsis Mice
Wistar rats (Charles River Laboratories, Japan Inc., male 8 W) were used. The abdominal portion of the rats was cut open under isoflurane anesthesia, and the appendix was exteriorized. The appendix was ligated with sterilized silk thread, and 10 holes were opened in the tip portion of the appendix using an 18 G syringe needle. After the treatment, the appendix was returned to the body, and the wound was sutured. Further, physiological saline was subcutaneously administered at a dose of 30 mL/kg. The rats were then returned to their cages, and observed for 7 days to determine the survival rate.
Test Compound Administration Method
The test compound was continuously administered via a cannula stuck in the femoral vein at a dose of 0.1 mg/kg/hr. Administration of the test compound was started 1 hour after the CLP procedure was finished.

Some results are limits rather than exact numbers.

T1 sequence (Q99500 whole entry): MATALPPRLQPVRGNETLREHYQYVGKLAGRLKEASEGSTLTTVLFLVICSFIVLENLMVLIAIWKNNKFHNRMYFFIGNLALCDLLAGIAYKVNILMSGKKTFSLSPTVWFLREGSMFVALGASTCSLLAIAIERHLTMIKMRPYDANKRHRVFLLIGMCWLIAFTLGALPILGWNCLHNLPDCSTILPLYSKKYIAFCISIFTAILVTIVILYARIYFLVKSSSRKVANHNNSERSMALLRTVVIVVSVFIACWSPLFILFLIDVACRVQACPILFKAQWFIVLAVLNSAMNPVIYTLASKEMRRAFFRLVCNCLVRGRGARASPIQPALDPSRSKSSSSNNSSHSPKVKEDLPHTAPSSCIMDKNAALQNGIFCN

In general, Kd refers to the constant that tells how readily two partners part at equilibrium. By EC50 is commonly meant the midpoint of the concentration-response curve. For the compound `C=CC[C@](N)(CCc1ccc(Sc2cc(OCC)ccc2O)cc1Cl)COP(=O)(O)O` [Example 1, (R)-2-allyl-2-amino-4-{2-chloro-4-(5-ethoxy-2-hydroxyphenylthio)phenyl}butylphosphoric acid monoester], the Kd in assay [1] was below 0.01 nM; in assay [2], 2.66 nM. Further, the EC50 in assay [3] is above 10000 nM.
Regarding `CCC[C@](N)(CCc1ccc(Sc2cc(OCC)ccc2O)cc1Cl)COP(=O)(O)O` [Example 2, (S)-2-amino-4-{2-chloro-4-(5-ethoxy-2-hydroxyphenylthio)phenyl}-2-propylbutylphosphoric acid monoester], the figures for the Kd in assay [1] and in assay [2] were below 0.01 nM and 1.6 nM, respectively. Besides, in assay [4] (0.1 mg/kg/hr continuous via femoral vein from 1 hour after CLP, vs medium administration group), the “survival lengthening action, Log-rank test p” value is reported as below 0.01. In addition, in assay [4] (0.1 mg/kg/hr continuous via femoral vein, after 3 days), the “survival rate, test subjects alive after 3 days” value turned out to be 25%. Moreover, the “survival rate, test subjects alive after 7 days” value in assay [4] (0.1 mg/kg/hr continuous via femoral vein, after 7 days) turned out to be 12.5%. Moreover, the EC50 in assay [3] was above 10000 nM.
Take `N[C@@](CCCO)(CCc1ccc(Sc2cc(C3CC3)ccc2O)cc1Cl)COP(=O)(O)O` [compound 19]: in assay [1], the Kd lay within 0.1 to 1 nM.
`C=CC[C@](N)(CCc1ccc(Sc2cc(C#N)ccc2O)cc1Cl)COP(=O)(O)O` [compound 28, (R)-2-allyl-2-amino-4-{2-chloro-4-(5-cyano-2-hydroxyphenylthio)phenyl}butylphosphoric acid monoester]: the Kd in assay [1] is 0.1 to 1 nM.
For the compound `CCC[C@](N)(CCc1ccc(Sc2cc(C#N)ccc2O)cc1Cl)COP(=O)(O)O` [compound 35, (S)-2-amino-4-[2-chloro-4-(5-cyano-2-hydroxyphenylthio)Phenyl]-2-propylbutylphosphoric acid monoester], the Kd in assay [1] lay in the range of 0.1 to 1 nM.
Consider `CCC[C@](N)(CCc1ccc(Sc2cc(C(C)=O)ccc2O)cc1Cl)COP(=O)(O)O` [compound 36, (S)-4-[4-(5-acetyl-2-hydroxyphenylthio)-2-chlorophenyl]-2-amin o-2-propylbutylphosphoric acid monoester], for which the Kd in assay [1] was 0.1 to 1 nM.
